Test results reported in article PMC3727052 (Bioorganic & medicinal chemistry, 2012).

Tests used:
HEL = HEL cells, microscopically visible alteration of cell morphology
Vero = Vero cells, microscopically visible alteration of cell morphology
HeLa = HeLa cells, microscopically visible alteration of cell morphology
Reovirus-1 = assay: Virus-induced cytopathicity, reovirus-1 in Vero cells; assay type: cell-based; settings: read-out: EC50 Reovirus-1
Parainfluenza-3 virus = assay: Virus-induced cytopathicity, parainfluenza-3 virus in Vero cells; assay type: cell-based; settings: read-out: EC50 Parainfluenza-3 virus
MDCK = MDCK cells, microscopically visible alteration of cell morphology
VZV (OKA & 07/1) = assay: VZV plaque formation assay in HEL cells; assay type: cell-based, varicella-zoster virus; settings: Human alphaherpesvirus 3, HEL, 120 h, read-out: EC50 VZV (OKA & 07/1)
Influenza virus (AH3N2) = assay: Virus-induced cytopathicity, influenza A H3N2 in MDCK cells; assay type: cell-based; settings: unidentified influenza virus, read-out: EC50 Influenza virus (AH3N2)
RSV = assay: Virus-induced cytopathicity, RSV in HeLa cells; assay type: cell-based; settings: human respiratory syncytial virus, read-out: EC50 RSV
Influenza virus B = assay: Virus-induced cytopathicity, influenza B in MDCK cells; assay type: cell-based; settings: unidentified influenza virus, read-out: EC50 Influenza virus B

Row | Structure (SMILES) | MCC (minimal cytotoxic concentration) HEL (HEL) [µM] | MCC (minimal cytotoxic concentration) Vero (Vero) [µM] | MCC (minimal cytotoxic concentration) HeLa (HeLa) [µM] | EC50 (Reovirus-1) [µM] | EC50 (Parainfluenza-3 virus) [µM] | MCC (minimal cytotoxic concentration) MDCK (MDCK) [µM] | EC50 (VZV (OKA & 07/1)) [µM] | EC50 (Influenza virus (AH3N2)) [µM] | EC50 (RSV) [µM] | EC50 (Influenza virus B) [µM]
1 | Nc1nc2c(sc3ncn([C@H]4C[C@H](O)[C@@H](CO)O4)c32)c(=O)[nH]1 [Compound 5, 1-[(5-Aminoimidazo[4′,5′:4,5]thieno[3,2-d]pyrimidin-3-yl-7-one)]-β-D-2′-deoxyribofuranose] | >100 | 100 | 100 | > 100 | > 100 | 0.8 | 71.3 to 100 |  |  | 
2 | Nc1ncnc2c1sc1ncn([C@H]3C[C@H](O)[C@@H](CO)O3)c12 [Compound 6, 1-[(7-aminoimidazo[4′,5′:4,5]thieno[3,2-d]pyrimidin-3-yl)]-β-D-2′-deoxyribofuranose] | ≥20 | >100 | >100 |  | > 100 | 20 |  |  |  | 
3 | NC(=O)c1ncn([C@@H]2O[C@H](CO)[C@@H](O)[C@H]2O)n1 [Ribavirin] |  |  |  | > 250 |  |  |  | 5.1 to 9 | 10 | 4.5 to 9
